From ChEMBL document CHEMBL4414643, “Pharmacokinetics of Phytocannabinoid Acids and Anticonvulsant Effect of Cannabidiolic Acid in a Mouse Model of Dravet Syndrome” (J Nat Prod, 2019) come the findings set out here.

Structures are written as SMILES.

This assay has as its system Mus musculus. Briefly: Anticonvulsant activity against hyperthermia-induced seizure in ip administered Scn1aRX/+ mouse model of Dravet syndrome assessed as effective dose causing increase in generalized tonic-clonic seizure temperature threshold measured by RET-3 rectal probe. In kind it is functional.

In the case of `C=C(C)[C@@H]1CCC(C)=C[C@H]1c1c(O)cc(CCCCC)cc1O` [CANNABIDIOL], the ED turned out to be 100 mg/kg.
